In patent US20260183295A1, “METHODS AND COMPOSITIONS FOR TREATING CANCER” (Onconova Therapeutics, Inc., priority 2022, published 2026):

What was measured:
PyMT cells = experiment: Senescence-associated β-galactosidase staining, 48 hours; assay type: cell-based, mouse; details: compared to DMSO
Protocol: Following 48 hours of treatment, cells were stained for the senescence marker β-galactosidase.

NUAK1 = biological target: T1, NUAK1 (Homo sapiens, UniProt O60285); experiment: NUAK1 In Vitro Kd, kinase binding assay (qPCR); details: second In Vitro column of Table 8
T1 sequence (O60285 1-661): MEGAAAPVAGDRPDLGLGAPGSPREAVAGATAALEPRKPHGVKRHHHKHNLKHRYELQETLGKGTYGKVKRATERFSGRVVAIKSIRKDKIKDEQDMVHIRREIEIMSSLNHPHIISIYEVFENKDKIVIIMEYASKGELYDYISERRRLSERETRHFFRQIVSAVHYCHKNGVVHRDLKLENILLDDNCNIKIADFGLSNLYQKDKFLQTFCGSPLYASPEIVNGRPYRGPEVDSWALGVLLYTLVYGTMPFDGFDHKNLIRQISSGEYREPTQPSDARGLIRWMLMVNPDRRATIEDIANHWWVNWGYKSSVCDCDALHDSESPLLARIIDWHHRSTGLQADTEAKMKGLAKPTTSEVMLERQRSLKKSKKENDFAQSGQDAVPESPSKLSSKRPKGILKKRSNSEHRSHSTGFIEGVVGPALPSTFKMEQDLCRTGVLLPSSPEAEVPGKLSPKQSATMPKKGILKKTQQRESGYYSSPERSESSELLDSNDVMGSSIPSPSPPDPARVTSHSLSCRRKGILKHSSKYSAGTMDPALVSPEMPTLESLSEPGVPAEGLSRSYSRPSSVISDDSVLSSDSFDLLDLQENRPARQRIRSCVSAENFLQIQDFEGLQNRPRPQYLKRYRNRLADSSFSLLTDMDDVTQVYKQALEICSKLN
Protocol: Kinase-tagged T7 phage strains were prepared in an E. coli host derived from the BL21 strain. E. coli were grown to log-phase and infected with T7 phage and incubated with shaking at 32° C. until lysis. The lysates were spun by centrifuge and filtered to remove cell debris. The remaining kinases were produced in HEK-293 cells and subsequently tagged with DNA for qPCR detection. […] The liganded beads were blocked with excess biotin and washed with blocking buffer (SeaBlock (Pierce), 1% BSA, 0.05% Tween 20, 1 mM DTT) to remove unbound ligand and to reduce non-specific binding. […] Test compounds were prepared as 111× stocks in 100% DMSO. Kds were determined using an 11-point 3-fold compound dilution series with three DMSO control points.
The compounds were then diluted directly into the assays such that the final concentration of DMSO was 0.9%. All reactions performed in polypropylene 384-well plate. Each was a final volume of 0.02 ml. […] The kinase concentration in the eluates was measured by qPCR. Binding constants (Kds) were calculated with a standard dose-response curve using the Hill equation: Response=Background+Signal−Background 1+(KdHill Slope/DoseHill Slope) The Hill Slope was set to −1. Curves were fitted using a non-linear least square fit with the Levenberg-Marquardt algorithm.

CDK4/cyclin D1 = CDK4/cyclin D1 (Homo sapiens, UniProt P11802); experiment: CDK4/cyclin D1 In Vitro IC50; assay type: biochemical
Chain of CDK4/cyclin D1 (P11802 whole entry): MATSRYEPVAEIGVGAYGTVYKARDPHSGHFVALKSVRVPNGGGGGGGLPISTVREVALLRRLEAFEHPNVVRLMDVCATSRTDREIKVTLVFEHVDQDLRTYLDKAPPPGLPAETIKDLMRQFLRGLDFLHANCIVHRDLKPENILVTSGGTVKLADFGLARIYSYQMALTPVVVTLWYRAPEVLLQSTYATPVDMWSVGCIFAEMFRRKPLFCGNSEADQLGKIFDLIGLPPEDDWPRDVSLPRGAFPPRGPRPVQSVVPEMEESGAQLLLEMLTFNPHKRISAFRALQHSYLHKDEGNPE
Chain of CDK4/cyclin D1 (P24385 whole entry partner): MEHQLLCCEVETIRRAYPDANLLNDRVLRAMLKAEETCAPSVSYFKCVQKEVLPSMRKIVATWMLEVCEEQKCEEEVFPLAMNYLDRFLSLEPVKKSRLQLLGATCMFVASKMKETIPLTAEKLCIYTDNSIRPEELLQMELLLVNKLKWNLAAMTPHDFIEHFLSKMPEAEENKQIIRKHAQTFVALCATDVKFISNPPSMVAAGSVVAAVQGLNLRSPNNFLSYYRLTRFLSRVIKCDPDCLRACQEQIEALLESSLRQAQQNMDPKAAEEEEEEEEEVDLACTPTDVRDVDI
Protocol: Substrate was prepared in freshly prepared base reaction buffer. Any required cofactors were delivered to the substrate solution above. Indicated kinase was delivered into the substrate solution and the solution was gently mixed. Compounds were delivered in 100% DMSO into the kinase reaction mixture by Acoustic technology (Echo550; nanoliter range) and incubated for 20 minutes at room temperature. 33P-ATP was delivered into the reaction mixture to initiate the reaction. The kinase reaction was incubated for 2 hours at room temperature. Kinase activity was detected by P81 filter-binding method.

Hs578T spheroids = experiment: CellTiter Glo 3D spheroid viability; assay type: cell-based; details: 48 hours; Compound 1, Comparator 1, Comparator 2 5 μM; Comparator 4 10 μM
Protocol: Viability of the spheroids was assessed using CellTiter Glo 3D.

pRb = experiment: Western blot after 2 h treatment, MDA-MB-231; assay type: cell-based; details: 5 μM, relative to DMSO control
Protocol: (§1) Following treatment, a sample of each of the three treatments was analyzed by Western Blot for expression of phosphoprotein targets.

pRb pSer807/811 = experiment: Western blot after 2 h treatment, MDA-MB-231; assay type: cell-based; details: 5 μM, relative to DMSO control
Protocol: as §1

MDA-MB-453 = experiment: MTT cell viability, 48 hours; assay type: cell-based; details: Homo sapiens, MDA-MB-453 (TNBC), read-out: 48 h-cell viability decrease
Protocol: (§2) A panel of […] breast cancer cell lines: T-47D, BT-474, MDA-MB-453, MDA-MB-468, HCC-1937, Hs578T, and MDA-MB-231, was treated for 48 hours with 5 μM Compound 1 and the cell viability was measured using the MTT assay. TABLE 6 summarizes the cell lines, and the change in viability after 48 hours of treatment with Compound 1.

Hs578T = experiment: MTT cell viability, 48 hours; assay type: cell-based; details: Homo sapiens, Hs-578T, Hs578T (TNBC), read-out: 48 h-cell viability decrease
Protocol: as §2

T-47D = experiment: MTT cell viability, 48 hours; assay type: cell-based; details: Homo sapiens, T47D, T-47D (HR+ HER2−), read-out: 48 h-cell viability decrease
Protocol: as §2

MDA-MB-231 = experiment: MTT cell viability, 48 hours; assay type: cell-based; details: Homo sapiens, MDA-MB-231 (TNBC), read-out: 48 h-cell viability decrease
Protocol: as §2

NanoLuc-CDK16 Fusion = biological target: T2, NanoLuc-CDK16 Fusion (Homo sapiens, UniProt Q00536); experiment: Cellular NanoBRET assay in HEK293 cells, raw data ratio; assay type: cell-based
T2 construct: expressed in transfected cells; host or cells: HEK293, transient
T2 sequence (Q00536 whole entry, the tested form may be a part): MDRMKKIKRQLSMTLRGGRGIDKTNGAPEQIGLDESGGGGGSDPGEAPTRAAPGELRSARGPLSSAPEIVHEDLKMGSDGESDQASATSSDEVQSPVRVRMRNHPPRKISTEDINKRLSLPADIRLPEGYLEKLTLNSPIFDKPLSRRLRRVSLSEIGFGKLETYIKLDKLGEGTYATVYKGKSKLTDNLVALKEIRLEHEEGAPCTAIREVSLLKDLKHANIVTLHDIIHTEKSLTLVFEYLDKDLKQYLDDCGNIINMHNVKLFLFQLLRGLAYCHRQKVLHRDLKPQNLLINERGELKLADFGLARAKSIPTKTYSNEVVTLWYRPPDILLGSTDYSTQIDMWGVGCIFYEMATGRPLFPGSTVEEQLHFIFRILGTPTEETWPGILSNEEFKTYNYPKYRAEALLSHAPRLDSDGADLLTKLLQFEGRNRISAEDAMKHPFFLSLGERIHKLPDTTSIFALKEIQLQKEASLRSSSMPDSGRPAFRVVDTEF
T2 sequence (Q8ND76 whole entry partner, the tested form may be a part): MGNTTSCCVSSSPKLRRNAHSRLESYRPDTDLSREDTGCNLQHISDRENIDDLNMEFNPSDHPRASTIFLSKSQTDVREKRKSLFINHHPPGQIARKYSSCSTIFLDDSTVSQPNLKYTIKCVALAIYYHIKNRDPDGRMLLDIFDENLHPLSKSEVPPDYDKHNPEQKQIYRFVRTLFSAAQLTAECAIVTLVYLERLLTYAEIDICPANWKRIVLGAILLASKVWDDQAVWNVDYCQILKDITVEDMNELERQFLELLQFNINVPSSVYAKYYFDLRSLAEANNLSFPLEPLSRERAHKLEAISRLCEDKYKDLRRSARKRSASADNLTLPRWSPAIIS
Protocol: HEK293 cells were transfected with 1 ug of NanoLuc-CDK16 Fusion vector and 9 ug of either carrier DNA or cyclin Y DAN. The HEK293 cells transiently expressing the vectors were then seeded into the wells of 384-well plates. The cells were pre-treated with the NanoBRET Tracer K-10 (0.5 uM) and then treated with 3-fold serial dilutions (10 uM-0.5 nM), of Compound 1 or the reference compound APY-69 for 1 hour. The BRET signal was measured on an Envision2104 Multilabel Reader. IC50 value was calculated and IC50 curve was plotted using the GraphPad Prism 4 program based on a sigmoidal dose response equation.

In the case of `CN1CCN(c2ccc(Nc3ncc4cc(C#N)c(=O)n(C5CCCC5)c4n3)cc2)CC1` [Compound 1, 8-cyclopentyl-2-((4-(4-methylpiperazin-1-yl)phenyl)amino)-7-oxo-7,8-dihydropyrido[2,3-d]pyrimidine-6-carbonitrile], the “β-galactosidase staining (senescence)” value (PyMT cells) is reported as “increased β-galactosidase staining”, the Kd (NUAK1) is reported as 19 nM and the IC50 (CDK4/cyclin D1) is reported as 2 nM. For the same compound, the “decrease in organoid viability compared to DMSO” value (Hs578T spheroids) was ~40%, the pRb levels (pRb) was “decreased pRb levels” and the “phosphorylation of pRb at Ser807/811” value (pRb pSer807/811) was “decreased phosphorylation”. For the same compound, the cytotoxicity at 5 µM (MDA-MB-453) was 50%, the cytotoxicity at 5 µM (Hs578T) was 40% and the cytotoxicity at 5 µM (T-47D) was 60%. For the same compound, the cytotoxicity at 5 µM (MDA-MB-231) was 60%, the “raw data ratio 600 nm/460 nm, Data 1” value (NanoLuc-CDK16 Fusion; Conc. 0.0005 μM) was 0.07557 and the “raw data ratio 600 nm/460 nm, Data 2” value (NanoLuc-CDK16 Fusion; Conc. 0.0005 μM) was 0.0761. The “raw data ratio 600 nm/460 nm, Data 1” value (NanoLuc-CDK16 Fusion; Conc. 0.0015 μM) was 0.06908, the “raw data ratio 600 nm/460 nm, Data 2” value (NanoLuc-CDK16 Fusion; Conc. 0.0015 μM) was 0.06919 and the “raw data ratio 600 nm/460 nm, Data 1” value (NanoLuc-CDK16 Fusion; Conc. 0.0046 μM) was 0.05883. For the same compound, the “raw data ratio 600 nm/460 nm, Data 2” value (NanoLuc-CDK16 Fusion; Conc. 0.0046 μM) was 0.05984, the “raw data ratio 600 nm/460 nm, Data 1” value (NanoLuc-CDK16 Fusion; Conc. 0.0137 μM) was 0.04626 and the “raw data ratio 600 nm/460 nm, Data 2” value (NanoLuc-CDK16 Fusion; Conc. 0.0137 μM) was 0.04683. For the same compound, the “raw data ratio 600 nm/460 nm, Data 1” value (NanoLuc-CDK16 Fusion; Conc. 0.0412 μM) was 0.04036, the “raw data ratio 600 nm/460 nm, Data 2” value (NanoLuc-CDK16 Fusion; Conc. 0.0412 μM) was 0.04048 and the “raw data ratio 600 nm/460 nm, Data 1” value (NanoLuc-CDK16 Fusion; Conc. 0.1235 μM) was 0.02963. For the same compound, the “raw data ratio 600 nm/460 nm, Data 2” value (NanoLuc-CDK16 Fusion; Conc. 0.1235 μM) was 0.03005, the “raw data ratio 600 nm/460 nm, Data 1” value (NanoLuc-CDK16 Fusion; Conc. 0.3704 μM) was 0.02837 and the “raw data ratio 600 nm/460 nm, Data 2” value (NanoLuc-CDK16 Fusion; Conc. 0.3704 μM) was 0.02942. For the same compound, the “raw data ratio 600 nm/460 nm, Data 1” value (NanoLuc-CDK16 Fusion; Conc. 1.1111 μM) was 0.02836, the “raw data ratio 600 nm/460 nm, Data 2” value (NanoLuc-CDK16 Fusion; Conc. 1.1111 μM) was 0.02899 and the “raw data ratio 600 nm/460 nm, Data 1” value (NanoLuc-CDK16 Fusion; Conc. 3.3333 μM) was 0.02996. For the same compound, the “raw data ratio 600 nm/460 nm, Data 2” value (NanoLuc-CDK16 Fusion; Conc. 3.3333 μM) was 0.02908, the “raw data ratio 600 nm/460 nm, Data 1” value (NanoLuc-CDK16 Fusion; Conc. 10.0000 μM) was 0.02733 and the “raw data ratio 600 nm/460 nm, Data 2” value (NanoLuc-CDK16 Fusion; Conc. 10.0000 μM) was 0.02831.
